Experimental data taken from ChEMBL document CHEMBL6074678, “Selectively Antagonizing the NOD1-Mediated Inflammatory Signaling Pathway Mitigates the Gastric Inflammation Induced by Helicobacter pylori Infection” (J Med Chem, 2024).
In brackets after ≈: the same amount, converted by molar mass.

Assays:
[1] = target: T1, Nucleotide-binding oligomerization domain-containing protein 1 (Mus musculus, UniProt Q8BHB0); test: Antagonist activity at mouse NOD1 expressed in HEK-Blue cells assessed as decrease in SEAP secretion incubated for 3 hrs followed by C12-iE-DAP stimulation for 20 hrs by spectrophotometry; format: cell-based, HEK-Blue mNOD1
T1 sequence (Q8BHB0 whole entry): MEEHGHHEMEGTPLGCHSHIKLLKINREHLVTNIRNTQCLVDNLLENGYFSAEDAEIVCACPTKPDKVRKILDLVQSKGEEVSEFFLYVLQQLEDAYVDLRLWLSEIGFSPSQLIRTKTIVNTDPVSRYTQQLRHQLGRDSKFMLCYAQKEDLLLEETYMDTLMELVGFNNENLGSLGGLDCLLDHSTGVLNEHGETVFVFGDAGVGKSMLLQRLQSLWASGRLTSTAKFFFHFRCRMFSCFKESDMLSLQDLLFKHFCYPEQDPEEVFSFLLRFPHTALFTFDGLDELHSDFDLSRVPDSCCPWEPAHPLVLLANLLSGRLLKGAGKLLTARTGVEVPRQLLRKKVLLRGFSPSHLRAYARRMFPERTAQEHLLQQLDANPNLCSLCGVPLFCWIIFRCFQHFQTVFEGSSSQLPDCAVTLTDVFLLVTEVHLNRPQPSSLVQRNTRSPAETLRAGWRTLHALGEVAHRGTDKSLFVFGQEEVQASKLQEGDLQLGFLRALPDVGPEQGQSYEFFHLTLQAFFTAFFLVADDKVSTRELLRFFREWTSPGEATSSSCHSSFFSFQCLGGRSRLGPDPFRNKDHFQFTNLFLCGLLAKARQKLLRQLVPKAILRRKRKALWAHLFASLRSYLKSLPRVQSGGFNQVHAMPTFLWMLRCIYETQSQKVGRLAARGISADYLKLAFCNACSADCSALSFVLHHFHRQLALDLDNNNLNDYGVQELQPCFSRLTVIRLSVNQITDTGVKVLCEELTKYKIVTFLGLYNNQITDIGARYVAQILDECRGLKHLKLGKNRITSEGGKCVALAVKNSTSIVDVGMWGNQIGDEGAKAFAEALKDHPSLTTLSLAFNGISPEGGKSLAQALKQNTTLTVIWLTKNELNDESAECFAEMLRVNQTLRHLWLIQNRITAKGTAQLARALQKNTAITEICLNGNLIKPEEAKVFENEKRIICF

[2] = target: Toll-like receptor 2 (Homo sapiens) (UniProt O60603); test: Inhibition of human TLR2 at 1 uM relative to control
[3] = target: T2, Nucleotide-binding oligomerization domain-containing protein 1 (Mus musculus) (UniProt Q8BHB0); test: Antagonist activity at mouse NOD1 expressed in HEK-Blue cells assessed as decrease in SEAP secretion at 1 uM incubated for 3 hrs followed by C12-iE-DAP stimulation for 20 hrs by spectrophotometry relative to control; format: cell-based; settings: HEK-Blue mNOD1, filed as antagonist, time 23.0 hrs
T2 sequence (whole entry): T1 sequence (Q8BHB0 whole entry)

[4] = target: T3, Toll-like receptor 9 (Homo sapiens) (UniProt Q9NR96); test: Inhibition of human TLR9 at 1 uM relative to control
T3 sequence (whole entry): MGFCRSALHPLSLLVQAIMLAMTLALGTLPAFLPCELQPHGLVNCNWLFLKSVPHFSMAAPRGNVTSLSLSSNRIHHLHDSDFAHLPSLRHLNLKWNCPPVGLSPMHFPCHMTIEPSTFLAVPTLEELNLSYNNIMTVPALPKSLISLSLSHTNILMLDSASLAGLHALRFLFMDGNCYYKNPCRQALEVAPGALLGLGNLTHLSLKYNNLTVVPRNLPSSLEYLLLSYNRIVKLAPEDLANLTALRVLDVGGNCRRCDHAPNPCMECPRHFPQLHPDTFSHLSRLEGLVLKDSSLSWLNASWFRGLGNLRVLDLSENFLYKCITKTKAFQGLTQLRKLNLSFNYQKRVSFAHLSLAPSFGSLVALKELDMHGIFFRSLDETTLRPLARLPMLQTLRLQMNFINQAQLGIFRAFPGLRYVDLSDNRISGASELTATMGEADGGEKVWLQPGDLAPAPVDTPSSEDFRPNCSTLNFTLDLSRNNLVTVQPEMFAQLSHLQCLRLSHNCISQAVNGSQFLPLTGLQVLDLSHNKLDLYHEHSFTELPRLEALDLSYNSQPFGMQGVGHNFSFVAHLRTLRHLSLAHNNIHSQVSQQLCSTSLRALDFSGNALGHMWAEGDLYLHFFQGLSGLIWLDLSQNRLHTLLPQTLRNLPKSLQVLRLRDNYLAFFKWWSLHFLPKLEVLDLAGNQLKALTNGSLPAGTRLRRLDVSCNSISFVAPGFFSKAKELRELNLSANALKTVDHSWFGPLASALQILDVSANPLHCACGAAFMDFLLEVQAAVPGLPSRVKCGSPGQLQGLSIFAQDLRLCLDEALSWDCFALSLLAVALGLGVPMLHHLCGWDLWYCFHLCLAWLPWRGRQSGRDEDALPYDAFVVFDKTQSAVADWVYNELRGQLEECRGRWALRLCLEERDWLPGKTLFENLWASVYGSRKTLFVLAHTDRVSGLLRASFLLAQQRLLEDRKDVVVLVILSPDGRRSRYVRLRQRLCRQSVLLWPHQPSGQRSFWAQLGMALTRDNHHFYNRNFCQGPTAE

[5] = target: Nucleotide-binding oligomerization domain-containing protein 2 (Homo sapiens, UniProt Q9HC29); test: Inhibition of human NOD2 at 1 uM relative to control
[6] = Solubility of compound in phosphate buffer at pH 7.2 to 7.4; format: physicochemical
[7] = Metabolic stability in mouse liver microsomes assessed as half life at 1.25 uM preincubated for 5 mins followed by NADPH addition measured upto 120 mins by LC-MS/MS analysis; format: ADME, Microsome; settings: time < 125 min
[8] = target: Receptor-interacting serine/threonine-protein kinase 2 (Homo sapiens) (UniProt O43353); test: Inhibition of RIP2 (unknown origin) at 10 uM relative to control
Sequence of Receptor-interacting serine/threonine-protein kinase 2 (Homo sapiens) (O43353 whole entry): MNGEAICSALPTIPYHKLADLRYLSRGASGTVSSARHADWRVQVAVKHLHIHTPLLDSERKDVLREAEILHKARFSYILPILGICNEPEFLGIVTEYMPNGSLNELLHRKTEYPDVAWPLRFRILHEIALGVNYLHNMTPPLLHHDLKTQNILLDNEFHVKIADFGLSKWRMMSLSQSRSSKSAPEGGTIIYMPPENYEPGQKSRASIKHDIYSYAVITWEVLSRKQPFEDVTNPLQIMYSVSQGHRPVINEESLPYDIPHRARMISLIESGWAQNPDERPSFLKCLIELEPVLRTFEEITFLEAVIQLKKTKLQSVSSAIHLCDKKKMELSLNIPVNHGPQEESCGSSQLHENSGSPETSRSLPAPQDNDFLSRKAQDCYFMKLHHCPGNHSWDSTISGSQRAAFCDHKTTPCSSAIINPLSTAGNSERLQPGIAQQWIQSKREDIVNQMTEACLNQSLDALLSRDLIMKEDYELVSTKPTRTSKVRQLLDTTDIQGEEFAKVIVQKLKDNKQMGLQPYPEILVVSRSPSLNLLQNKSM

Sequence of Toll-like receptor 2 (Homo sapiens) (O60603 whole entry, the tested form may be a part): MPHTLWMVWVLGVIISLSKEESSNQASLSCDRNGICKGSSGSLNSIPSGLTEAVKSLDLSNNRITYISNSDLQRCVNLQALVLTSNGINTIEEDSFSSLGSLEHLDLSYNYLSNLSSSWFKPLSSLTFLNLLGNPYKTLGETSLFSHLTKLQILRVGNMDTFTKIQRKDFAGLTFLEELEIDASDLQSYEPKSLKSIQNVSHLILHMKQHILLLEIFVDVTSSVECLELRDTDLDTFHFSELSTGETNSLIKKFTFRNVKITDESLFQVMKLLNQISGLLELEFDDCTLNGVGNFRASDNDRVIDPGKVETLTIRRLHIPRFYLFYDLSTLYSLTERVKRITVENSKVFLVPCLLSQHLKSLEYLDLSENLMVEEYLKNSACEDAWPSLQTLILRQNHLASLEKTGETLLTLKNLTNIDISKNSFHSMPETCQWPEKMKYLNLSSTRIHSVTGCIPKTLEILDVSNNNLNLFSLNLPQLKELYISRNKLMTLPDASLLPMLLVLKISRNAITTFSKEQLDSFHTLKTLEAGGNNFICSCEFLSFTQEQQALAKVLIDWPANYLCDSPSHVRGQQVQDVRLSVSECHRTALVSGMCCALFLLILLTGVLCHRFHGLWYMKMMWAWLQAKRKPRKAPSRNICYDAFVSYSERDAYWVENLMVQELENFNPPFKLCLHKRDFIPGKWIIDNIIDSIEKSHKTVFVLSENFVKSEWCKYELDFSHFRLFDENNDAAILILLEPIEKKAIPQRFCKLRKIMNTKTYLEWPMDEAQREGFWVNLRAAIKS
Sequence of Nucleotide-binding oligomerization domain-containing protein 2 (Q9HC29 whole entry, the tested form may be a part): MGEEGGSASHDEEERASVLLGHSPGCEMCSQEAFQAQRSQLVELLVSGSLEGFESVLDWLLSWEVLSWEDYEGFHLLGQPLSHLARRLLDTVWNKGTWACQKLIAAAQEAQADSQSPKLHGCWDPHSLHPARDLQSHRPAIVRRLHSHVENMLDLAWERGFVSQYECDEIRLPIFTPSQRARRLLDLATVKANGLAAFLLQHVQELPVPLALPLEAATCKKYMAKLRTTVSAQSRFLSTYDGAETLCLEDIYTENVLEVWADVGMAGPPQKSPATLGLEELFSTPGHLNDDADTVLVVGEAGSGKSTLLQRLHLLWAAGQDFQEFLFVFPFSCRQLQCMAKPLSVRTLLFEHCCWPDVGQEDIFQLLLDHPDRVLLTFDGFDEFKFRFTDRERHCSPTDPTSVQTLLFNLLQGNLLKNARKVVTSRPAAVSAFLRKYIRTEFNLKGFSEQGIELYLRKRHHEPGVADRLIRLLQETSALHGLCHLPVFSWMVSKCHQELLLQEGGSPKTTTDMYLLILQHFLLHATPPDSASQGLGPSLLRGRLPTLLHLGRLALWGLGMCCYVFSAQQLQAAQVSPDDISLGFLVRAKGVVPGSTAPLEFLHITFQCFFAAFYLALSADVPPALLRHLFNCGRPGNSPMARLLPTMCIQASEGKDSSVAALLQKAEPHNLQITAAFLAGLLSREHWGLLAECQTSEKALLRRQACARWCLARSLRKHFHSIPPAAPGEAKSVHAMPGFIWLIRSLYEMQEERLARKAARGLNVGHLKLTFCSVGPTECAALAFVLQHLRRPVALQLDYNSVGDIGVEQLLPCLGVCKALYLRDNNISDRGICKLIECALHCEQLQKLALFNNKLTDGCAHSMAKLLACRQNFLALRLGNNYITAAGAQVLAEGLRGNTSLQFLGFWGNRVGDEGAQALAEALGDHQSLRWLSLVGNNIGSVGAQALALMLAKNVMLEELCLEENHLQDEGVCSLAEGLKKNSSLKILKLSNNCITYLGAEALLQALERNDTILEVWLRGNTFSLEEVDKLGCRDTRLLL

Row | IC50 [1] | inhibition [2] | inhibition [3] | inhibition [4] | inhibition [5] | solubility [6] | half-life at 1.25 µM [7] | inhibition [8] | Structure (SMILES)
1 | 58 nM | 52.3% | 87.2% | 73.9% | 16.1% | 21.5 µg/mL (≈ 37 µM) | 22.8 min | 10.5% | CS(=O)(=O)c1ccc2nc(Cl)n(-c3ccc(Cl)c(NS(=O)(=O)c4ccc5ncsc5c4)c3)c(=O)c2c1
2 | 32 nM | 12.8% | 80.8% | 37.1% | 36.9% | 44.6 µg/mL (≈ 79.6 µM) | 30.1 min | 11.4% | CS(=O)(=O)c1ccc2nc(Cl)n(-c3ccc(Cl)c(NS(=O)(=O)c4c(F)cccc4F)c3)c(=O)c2c1
3 | 54 nM | 8.5% | 73.6% | 37.6% | < 10% | 48.8 µg/mL (≈ 96.2 µM) | 26.5 min | < 10% | N#Cc1ccc2nc(Cl)n(-c3ccc(Cl)c(NS(=O)(=O)c4c(F)cccc4F)c3)c(=O)c2c1
